From ChEMBL document CHEMBL1157539, “Thousands of chemical starting points for antimalarial lead identification” (Nature, 2010)

System: Plasmodium falciparum
Assay: GSK_TCMDC: Inhibition of Plasmodium falciparum 3D7 in whole erythrocytes, using parasite LDH activity as an index of growth.
Type: functional, organism-based

Row | SMILES | XC50 (Plasmodium falciparum, 3D7) [nM] | XC50 [nM]
1 | CC(C)(C)c1ccc(CNC(=O)COc2ccc(-c3nnc(-c4cccc([N+](=O)[O-])c4)o3)cc2[N+](=O)[O-])cc1 | 926 | –
2 | COc1ccc(OC(C)CNC(=O)c2cc([N+](=O)[O-])ccc2-c2ccc(OC)cc2)cc1 (centres undefined) | 1150 | –
3 | CN(Cc1ccccc1)C1CCN(CCc2c[nH]c3ccc(F)cc23)CC1 | 597 | –
4 | Cc1ccc(C)c(Cn2ccc3nc(Cl)nc(Cl)c32)c1 | 911 | –
5 | CC1(C)N=C(N)N=C(N)N1c1ccc(I)cc1 | 44.4 | –
6 | COc1ccc(-c2ccc(CN(C)C3CCC(NC(=O)c4cc5ccccc5[nH]4)CC3)cc2)cn1 (centres undefined) | 871 | –
7 | O=C(N1CCN(c2ccnc3cc4c(cc23)N(Cc2ccccc2)CC4)CC1)C(F)(F)F | 257 | –
8 | COc1ccc(C(=O)NCC(C)(C)c2nc(-c3ccc(Cl)c(O)c3)c(-c3ccncc3)[nH]2)cc1OCCN(C(C)C)C(C)C | 643 | –
9 | COc1ccc(C=NN=c2cc(C)[nH]c3c(C)cccc23)c2ccccc12 | 224 | –
10 | COc1ccc(O)c(C(=O)c2cc(C(=O)NCCc3ccccc3)c(=O)n(CCc3ccccc3)c2)c1 | 1010 | –
11 | Cc1cccc2nc(-c3ccc(-c4ccc(CN5CCCC5CN)cc4)cc3)[nH]c12 (centres undefined) | 815 | –
12 | Cc1nc2nc(N)nc(N)c2c(C)c1Cc1ccc(O)cc1 | 236 | –
13 | CCCc1ccc(S(=O)(=O)NC2CCN(c3ccnc(Nc4ccc(OC)cc4)n3)C2)cc1 (centres undefined) | 1190 | –
14 | CC(C)c1ccc(CN2CCC(CNC(=O)c3cc(-c4cccc(F)c4)cs3)C2)cc1 (centres undefined) | 1660 | –
15 | CC(C)CCN1CCCN(Cc2ccc(C(=O)Nc3ccc(F)c(F)c3)cc2)CC1 | 944 | –
16 | CCN(CC)CCOC(=O)C(OC)(c1ccccc1)c1ccccc1 | 1020 | –
17 | CC(C)Cc1c(O)nc(SCCN2CCOCC2)[nH]c1=O | 1260 | –
18 | COc1cc2nc(N3CCC(CNC(=O)c4ccc(-c5ccc(O)cc5)cc4)CC3)nc(N)c2cc1OC | 175 | –
19 | Cc1cc(N[C@@H](Cc2ccccc2)C(=O)Nc2ccccc2)nc(NCCc2ccc(F)cc2)n1 | 860 | –
20 | COc1ccc(CNCc2ccc(-c3ccc(CNCCc4ccccc4)cn3)cc2)cn1 | 1010 | –
21 | CCOC(=O)c1c(CN2CCN(C)CC2)n(Cc2ccccc2)c2cc(Br)c(O)cc12 | 595 | –
22 | Oc1ccccc1CCNC1CCc2ccccc2C1 (centres undefined) | 928 | –
23 | CCc1c(C)nc(-n2nc(C)cc2NC(=O)C(CC)c2ccccc2)[nH]c1=O (centres undefined) | 714 | –
24 | CCN(CC)S(=O)(=O)c1ccc(CCOCCCCCNCC(O)c2cc(Cl)c(N)c(Cl)c2)s1 (centres undefined) | 858 | –
25 | CCCCN(Cc1cc(Cl)c(OCC)c(OC)c1)c1ccc(C(O)(C(F)(F)F)C(F)(F)F)cc1 | 915 | –

Row | SMILES | XC50 (Plasmodium falciparum, 3D7) [nM] | XC50 [nM]
26 | Cc1cc2nc(-c3ccc(C(=O)NC4CCN(Cc5ccccc5)CC4)cc3)[nH]c2cc1C | 743 | –
27 | CCN(CC)/C(=N/C(=N)Nc1ccc(Cl)cc1)NCCCCCCCCN/C(=N\C(=N)Nc1ccc(Cl)cc1)N(CC)CC | 403 | –
28 | CN(C)CCNC(=O)c1ccc2c(c1)n(C1CCN(S(=O)(=O)c3ccc(-c4ccccc4)cc3)CC1)c(=O)n2CC1CCCCC1 | 624 | –
29 | O=C(NC1CCCc2ccccc21)[C@@H]1CCCN1C(=O)c1ccc(O)c(-c2ccc(Cl)c(Cl)c2)c1 (some centres undefined) | 209 | –
30 | CCN(CC)C(=O)c1cccc(C=Cc2ccc(-c3c(C)[nH]c(C)c(Cl)c3=O)cc2)c1 | 259 | –
31 | CC(O)CNc1nc2ccccc2n1CC(=O)Nc1cccc(C(=O)Nc2cccc(C(F)(F)F)c2)c1 (centres undefined) | 103 | –
32 | CC(C)CCN1CCC(Oc2ccc(NC(=O)c3ccc(F)cc3)cc2Cl)CC1 | 725 | –
33 | CC(Oc1ccc(Cl)cc1)C(=O)Nc1cc(C(F)(F)F)ccc1-n1cncn1 (centres undefined) | 151 | –
34 | COc1cccc(NC(=O)NCCNc2ccnc(Nc3ccc(F)cc3)n2)c1 | 917 | –
35 | OC(c1ccccc1)C1CN(CCC2CC3CCC2C3)CCC1(O)c1ccccc1 (centres undefined) | 346 | –
36 | COc1ccccc1CNc1ncc(-c2ccsc2)c(-c2nccs2)n1 | 333 | –
37 | Cc1nc2ccc3ccc(CNc4ccc(C(=O)CC(CCC(=O)O)C(=O)O)cc4)cc3c2c(=O)[nH]1 (centres undefined) | 35.7 | –
38 | C=CC[C@@H](C(=O)OCC)[C@@H]1[C@@H](N(CC=C)C(=O)OC(C)(C)C)CCN1C(=O)OCc1ccccc1 | 964 | –
39 | Cc1cc2nc(-c3ccc(/C=C/C(=O)NC4CCN(Cc5ccccc5)CC4)cc3)[nH]c2cc1C | 588 | –
40 | Fc1ccc2[nH]c(-c3ccc(-c4ccc(CN5CCC(CCN6CCCCC6)CC5)cc4)cc3)nc2c1 | 129 | –
41 | O=C(Nc1cccc(OCCN2CCCC2)c1)Nc1ccc(Cl)c(Cl)c1 | 775 | –
42 | O=C(Nc1cccc(CN2CCN(C(=O)c3ccccc3)CC2)c1)c1ccco1 | 886 | –
43 | CC(CCON1C(N)=NC(N)=NC1(C)C)c1ccc(Cl)c(Cl)c1 (centres undefined) | 3.2 | –
44 | Cc1ccccc1N1CCN(c2ccc(C(=O)Nc3ccccc3)cc2)CC1 | 723 | –
45 | CNC(=O)NC1=NC(C)(C)N(OCCCOc2cc(Cl)c(Cl)cc2Cl)C(N)=N1 | 935 | –
46 | Cc1cc(N2CCCC2)nc(Nc2ccc(NC(=O)COc3ccccc3)cc2)n1 | 647 | –
47 | Cc1ccc(NC(=O)c2ccc(CN3CCCN(CCC(C)C)CC3)cc2)cc1C | 913 | –
48 | CC(C)(C)c1ccc(NC(=O)N[C@@H]2CCN(c3ccnc4ccccc34)C2)cc1 | 350 | –
49 | O=C(/C=C/c1ccc(Cl)c(Cl)c1)NCCCCCN1CCC(NC(=O)Nc2ccccc2F)CC1 | 839 | –
50 | O=C1CCCN1CCCNCc1cccc(-c2cccc(-c3nc4cc(F)ccc4[nH]3)c2)c1 | 598 | –

Row | SMILES | XC50 (Plasmodium falciparum, 3D7) [nM] | XC50 [nM]
51 | Cc1cc(N(C)CCCN(C)C)nc(Nc2ccc(Br)cc2)n1 | 643 | –
52 | O=C(NCCCN1CCCCC1)c1cccc(Nc2nccc(Nc3ccc(Oc4ccccc4)cc3)n2)c1 | 821 | –
53 | CCOC(=O)c1cn(CC)c2cc(N3CCCCCC3)c(F)cc2c1=O | 413 | –
54 | CCCc1ccc(S(=O)(=O)NC2CCN(c3ccnc(Nc4ccc(F)cc4)n3)C2)cc1 (centres undefined) | 1010 | –
55 | Cc1cccc2nc(-c3ccc(-c4cccc(CN5CCC(CO)CC5)c4)s3)[nH]c12 | 935 | –
56 | Cn1cc(C2CCN(CCCCCNC(=O)/C=C/c3ccc(Cl)c(Cl)c3)CC2)c2cc(O)ccc21 | 943 | –
57 | COc1ccc2nccc([C@@H](O)CN3CCC(NC(=O)/C=C/c4cccc(C)c4)CC3)c2c1 | 1250 | –
58 | CCOC(=O)c1c[nH]c2c(sc3cc(OC)ccc32)c1=O | 387 | –
59 | COc1ccc(CNCc2ccc(F)cc2)cc1-c1cccc(S(=O)(=O)NCCN2CCCC2)c1 | 805 | –
60 | COc1ccc2nc3ccccc3c(NCCN3CCN(C)CC3)c2c1 | 1290 | –
61 | CN1CCc2ccc(NC(=O)Nc3ccc(-c4ccccc4)cc3)cc2C1 | 511 | –
62 | CCNCCCC(C)Nc1ccnc2cc(Cl)ccc12 (centres undefined) | 200 | –
63 | COc1ccc(CCON2C(=N)N=C(N)NC2(C)C)cc1OC | 5.91 | –
64 | O=C(Nc1ccc(F)cc1)c1nc2ccccc2nc1Cl | 1230 | –
65 | CN(C)CCCc1cc2c(cc1Cl)CCN2C(=O)Nc1ccc(-c2ccncc2)c2ccccc12 | 1180 | –
66 | COc1ccc(-c2nc(NC(=O)CS(=O)(=O)c3ccc(C)cc3)sc2C)cc1 | 401 | –
67 | CC(=O)C=C1CC(=O)N(C[C@@H](O)[C@H]2O[C@@H]3OC(C)(C)O[C@@H]3[C@H]2O)c2ccccc2N1 | 1260 | –
68 | Nc1c2c(nc3ccc(C(=O)Nc4ccc(Br)cc4)cc13)CCCC2 | 149 | –
69 | CN1CCN(c2ccc(Nc3ncc(Cl)c(Nc4cccnc4C(N)=O)n3)cc2)CC1 | 153 | –
70 | c1cc(-c2ccc(CNCCCN3CCOCC3)cc2)cc(-c2nc3ccccc3[nH]2)c1 | 207 | –
71 | COc1ccc2ncc(Cl)c(CCN3CCC(NCc4ccc5c(n4)NC(=O)CS5)CC3)c2c1 | 590 | –
72 | COc1cc2ncnc(Nc3ccc(OCc4ccccc4)c(OCc4ccccc4)c3)c2cc1OC | 738 | –
73 | COc1cc(CN2CCC(C(=O)Nc3ccc(-c4cccc(C)c4)cc3)CC2)ccc1O | 1120 | –
74 | CNCCNCc1cccc(-c2ccc(-c3nc4cc(C(F)(F)F)ccc4[nH]3)s2)c1 | 823 | –
75 | COc1ccc(C(=O)CCC(=O)N(CCSC(C)(C)C)Cc2ccc(-c3ccc(CNCCc4ccc(S(C)(=O)=O)cc4)cn3)cc2)cc1F | 627 | –

Row | SMILES | XC50 (Plasmodium falciparum, 3D7) [nM] | XC50 [nM]
76 | O=C(Nc1ccc(OC2CCN(Cc3ccc(F)cc3)C2)cc1)c1ccco1 (centres undefined) | 1040 | –
77 | COc1cc(CNCCCCCCNCc2cc(OC)c3ccccc3c2OC)c(OC)c2ccccc12 | 700 | –
78 | CN1CCC(C(=O)N(Cc2ccc(-c3ccc(CNCCc4ccc(S(C)(=O)=O)cc4)cn3)cc2)C2Cc3ccccc3C2)CC1 | 665 | –
79 | Cc1noc(C)c1-c1cccc(CNCc2cccc(-c3cccc(-c4nc5ccccc5[nH]4)c3)c2)c1 | 377 | –
80 | CCCC(=O)NC(c1cccs1)c1cc(Cl)c2cccnc2c1O (centres undefined) | 848 | –
81 | Cn1c(NC(=O)C2CCC(CNC(=O)c3ccc(O)c(-c4ccc(Cl)c(Cl)c4)c3)CC2)nc2ccccc21 (centres undefined) | 654 | –
82 | CS(=O)(=O)c1ccc(CNCc2ccc(-c3cccc(-c4nc5ccccc5[nH]4)c3)cc2)cc1 | 326 | –
83 | CCCN(Cc1nnc(-c2cccs2)o1)C(=O)CSc1nnnn1-c1cc(C)cc(C)c1 | 500 | –
84 | O=S(=O)(NCCN1CCCC1)c1ccc(-c2ccc(CNCc3ccc(F)cc3)cc2)cc1 | 794 | –
85 | COc1cccc(CN2CCCC(COC(c3ccc(F)cc3)c3ccc(F)cc3)C2)c1O (centres undefined) | 330 | –
86 | CC(Cc1ccc(OCCN2CCN(c3ccccc3)CC2)cc1)NCC(O)c1cccc(Cl)c1F (centres undefined) | 873 | –
87 | O=C(NC(Nc1ccc([N+](=O)[O-])cc1)C(Cl)(Cl)Cl)c1ccc(Cl)cc1 (centres undefined) | 782 | –
88 | Cc1ccc2c(c1C)NC(=O)C21NN=C(c2ccccc2)S1 (centres undefined) | 749 | –
89 | Cc1cc(Nc2ccc3ccccc3c2)n2ncnc2n1 | 173 | –
90 | O=C(Nc1cccc(-c2cccc(-c3nc4cc(F)ccc4[nH]3)c2)c1)c1ccncc1 | 514 | –
91 | COc1ccccc1CCNc1nccc(N[C@@H](Cc2ccccc2)C(=O)NCc2cccs2)n1 | 871 | –
92 | CCN(C)c1cc(C(=O)N[C@@H](Cc2ccccc2)[C@H](O)CNC(C)(C)c2cccc(OC)c2)cc(N2CCCC2=O)c1 | 73 | –
93 | COc1cccc(NC(=O)c2cc(C(=O)Nc3cccc(OC)c3)cc([N+](=O)[O-])c2)c1 | 661 | –
94 | COc1ccc(O)c(CN2CCN(c3cc(C)ccc3C)CC2)c1 | 1010 | –
95 | Nc1nc(N)c2cc(C(F)(F)F)ccc2n1 | 1130 | –
96 | O=C(C=Cc1ccccc1C(F)(F)F)NC1CCC(CN2CCC(c3c[nH]c4ccccc34)CC2)CC1 (centres undefined) | 677 | 902
97 | COc1ccc(-c2cncc(-c3ccc(OC)c(OC)c3)n2)cc1OC | 777 | –
98 | CS(=O)(=O)Nc1ccc2c(C3CCN(CCC4CCN(C(=O)/C=C/c5ccc(Cl)c(Cl)c5)CC4)CC3)c[nH]c2c1 | 599 | –
